Data published in patent EP4678639A1, “SALT OF BENZIMIDAZOLE DERIVATIVE” (JW Pharmaceutical Corporation, priority 2023, dated 2024).

Tests used:
[1] = Raw material stability test versus tegoprazan freebase (60 °C or 90 % RH); type: physicochemical
[2] = in vivo; cited from earlier work
[3] = Solubility comparative test (Korean Pharmacopoeia 'Solubility'); details: solubility of the acid addition salt itself, without conversion to freebase

change in appearance, 60 °C ([1]; 60 °C, 3 weeks): No change in appearance
change in appearance, 90 % RH ([1]; 90 % RH, 3 weeks): No change in appearance
change in appearance, Initial ([1]; initial): No change in appearance
Solubility [3]: < 1000 µg/mL
SMILES: Cc1nc2cc(C(=O)N(C)C)cc(O[C@H]3CCOc4cc(F)cc(F)c43)c2[nH]1 [Tegoprazan Freebase Crystalline Form A]
Tmax delayed when administered after a meal compared to before a meal [2]: up to 8 hours
